# Data as given in patent US10689331B2, “IDO inhibitors” (Bristol-Myers Squibb Company, priority 2015, dated 2020).
# Biological target: T1, human IDO1 (Homo sapiens, UniProt P14902)
# T1 construct: expressed in transfected cells
# Test: HEK Human IDO-1 inhibition assay (kynurenine readout, Ehrlich reagent, absorbance 490 nm)
# Type: cell-based
# Conditions: human IDO1/HEK293 cells, incubated 20 hours with compound; 500 nM reference standard = 100% inhibition
# Method: HEK293 cells were transfected with a pCDNA-based mammalian expression vector harboring human IDO1 cDNA (NM 002164.2) by electroporation. They were cultured in medium (DMEM with 10% FBS) containing 1 mg/ml G418 for two weeks. Clones of HEK293 cells that stably expressed human IDO1 protein were selected and expanded for IDO inhibition assay.
# The human IDO1/HEK293 cells were seeded at 10,000 cells per 50 uL per well with RPMI/phenol red free media contains 10% FBS in a 384-well black wall clear bottom tissue culture plate (Matrix Technologies LLC) 100 nL of certain concentration of compound was then added to each well using ECHO liquid handling systems. The cells were incubated for 20 hours in 37° C. incubator with 5% CO2.
# The compound treatments were stopped by adding Trichloroacetic Acid (Sigma-Aldrich) to a final concentration at 0.2%. The cell plate was further incubated at 50° C. for 30 minute. The equal volume supernatant (20 uL) and 0.2% (w/v) Ehrlich reagent (4-dimethylaminobenzaldehyde, Sigma-Aldrich) in glacial acetic acid were mixed in a new clear bottom 384-well plate. This plate was then incubated at room temperature for 30 minute. The absorbance at 490 nm was measured on Envision plate reader. Compound IC50 values were calculated using the counts of 500 nM of a reference standard treatment as one hundred percent inhibition, and counts of no compound but DMSO treatment as zero percent inhibition.
# T1 sequence (P14902 whole entry): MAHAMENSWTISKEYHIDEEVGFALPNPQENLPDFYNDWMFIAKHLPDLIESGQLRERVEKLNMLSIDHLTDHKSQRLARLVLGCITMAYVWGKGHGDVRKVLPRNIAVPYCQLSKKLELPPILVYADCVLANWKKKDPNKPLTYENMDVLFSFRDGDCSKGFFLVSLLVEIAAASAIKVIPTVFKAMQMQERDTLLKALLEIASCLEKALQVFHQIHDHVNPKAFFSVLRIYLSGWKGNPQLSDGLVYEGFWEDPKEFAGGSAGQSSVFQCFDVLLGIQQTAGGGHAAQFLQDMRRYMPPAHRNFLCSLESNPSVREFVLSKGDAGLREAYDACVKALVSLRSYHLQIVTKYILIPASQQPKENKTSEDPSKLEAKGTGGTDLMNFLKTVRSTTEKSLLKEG
row,SMILES,IC50 [nM]
1,"CC(C)CN(c1ccc(OC(C)C(=O)O)cc1Nc1nc2ccccc2o1)C1CCCCC1 (racemic) [Example 62, (±)-2-(3-(benzo[d]oxazol-2-ylamino)-4-(cyclohexyl (isobutyl)amino)phenoxy)propanoic acid]",≥ 100
2,"COc1cnc(Nc2cc(OC(C)C(=O)O)ccc2N(CC(C)C)C2CCCCC2)nc1 (racemic) [Example 63, (±)-2-(4-(cyclohexyl(isobutyl)amino)-3-((5-methoxypyrimidin-2-yl)amino)phenoxy)propanoic acid]",≥ 100
3,Cc1cc(NC(=O)Nc2cc(OC(C)C(=O)NS(=O)(=O)C3CC3)ccc2N(CC(C)C)C2CCCCC2)on1 (racemic) [Example 68],< 5
4,"Cc1ccc(NC(=O)Nc2cc(OC(C)C(=O)NS(=O)(=O)C3CC3)ccc2N(CC(C)C)C2CCCCC2)cc1 (racemic) [Example 69, (±)-2-(4-(cyclohexyl(isobutyl)amino)-3-(3-(p-tolyl)ureido)phenoxy)-N-(cyclopropylsulfonyl)propanamide]",< 5
5,"CC(C)CN(c1ccc(OC(C)C(=O)NS(=O)(=O)C2CC2)cc1NC(=O)Nc1ccc(Cl)cc1F)C1CCCCC1 (racemic) [Example 70, (±)-2-(3-(3-(4-chloro-2-fluorophenyl)ureido)-4-(cyclohexyl(isobutyl)amino)phenoxy)-N-(cyclopropylsulfonyl) propanamide]",< 5
6,"CC(C)CN(c1ccc(OC(C)C(=O)O)cc1NC(=O)Cc1ccc(F)cc1F)C1CCCCC1 (racemic) [Example 71, 2-(4-(cyclohexyl(isobutyl)amino)-3-(2-(2,4-difluorophenyl)acet-amido)phenoxy)propanoic acid]",< 100
7,"CC(C)CN(c1ccc(OC(C)C(=O)O)cc1NC(=O)Cc1ccc(Cl)c(F)c1)C1CCCCC1 (racemic) [Example 72, 2-(3-(2-(4-chloro-3-fluorophenyl)acetamido)-4-(cyclohexyl (isobutyl)amino)phenoxy)prop-anoic acid]",< 100
8,CC(C)CN(c1ccc(OC(C)C(=O)O)cc1NC(=O)Cc1ccc(Cl)cc1F)C1CCCCC1 (racemic) [Example 73],< 100
9,"CC(C)CN(c1ccc(OC(C)C(=O)O)cc1NC(=O)Cc1ccc(F)cc1)C1CCCCC1 (racemic) [Example 74, 2-(4-(cyclohexyl(isobutyl)amino)-3-(2-(4-fluorophenyl)acet-amido)phenoxy)propanoic acid]",≥ 100
10,"Cc1ccc(CC(=O)Nc2cc(OC(C)C(=O)O)ccc2N(CC(C)C)C2CCCCC2)cc1 (racemic) [Example 75, 2-(4-(cyclohexyl(isobutyl)amino)-3-(2-(p-tolyl)acetamido)phenoxy)propanoic acid]",< 100
11,"Cc1ccc(CC(=O)Nc2cc(OC(C)C(=O)O)ccc2N(CC(C)C)C2CCCCC2)c(F)c1 (racemic) [Example 76, 2-(4-(cyclohexyl(isobutyl)amino)-3-(2-(2-fluoro-4-methylphenyl)acetamido)phenoxy)propanoic acid]",< 100
12,"CC(C)CN(c1ccc(OC(C)C(=O)NS(=O)(=O)C2CC2)cc1NC(=O)Cc1ccc(Cl)cc1F)C1CCCCC1 (racemic) [Example 77, (±)-2-(3-(2-(4-chloro-2-fluorophenyl)acetamido)-4-(cyclohexyl(isobutyl)amino)phenoxy)-N-(cyclopropylsulfonyl) propanamide]",< 100
13,"Cc1ccc(CC(=O)Nc2cc(OC(C)C(=O)NS(=O)(=O)C3CC3)ccc2N(CC(C)C)C2CCCCC2)cc1 (racemic) [Example 78, (±)-2-(4-(cyclohexyl(isobutyl)amino)-3-(2-(p-tolyl)acetamido)phenoxy)-N-(cyclopropylsulfonyl)propanamide]",< 100
14,"CC(C)CN(c1ccc(OC(C)C(=O)NS(=O)(=O)C2CC2)cc1NC(=O)Cc1ccc(Cl)c(F)c1)C1CCCCC1 (racemic) [Example 79, (±)-2-(3-(2-(4-chloro-3-fluorophenyl)acetamido)-4-(cyclohexyl(isobutyl)amino)phenoxy)-N-(cyclopropylsulfonyl) propanamide]",≥ 100
15,CC(C)CN(c1ccc(OC(C(=O)O)C(C)C)cc1NC(=O)Nc1ccc(Cl)cc1F)C1CCCCC1 (racemic) [Example 83],< 5
16,"Cc1ccc(NC(=O)Nc2cc(OC(C(=O)O)C(C)C)ccc2N(CC(C)C)C2CCCCC2)cc1 (racemic) [Example 84, (±)-2-(4-(cyclohexyl(isobutyl)amino)-3-(3-(p-tolyl)ureido)phenoxy)-3-methylbutanoic acid]",< 100
17,"C=C(C)CN(c1ccc(OC(C)C(=O)O)cc1NC(=O)Nc1ccc(C)cc1)C1CCOCC1 (racemic) [Example 140, (+/−)-2-(4-((2-methylallyl)(tetrahydro-2H-pyran-4-yl)amino)-3-(3-(p-tolyl)ureido)phenoxy)propanoic acid]",≥ 100
18,COc1ccc(NC(=O)Nc2cc(OC(C)C(=O)O)ccc2N(CC(C)C)C2CCCCC2)c(F)c1 (racemic) [racemic 64],< 5
19,Cc1ccc(NC(=O)Nc2cc(OC(C)C(=O)O)ccc2N(CC(C)C)C2CCCCC2)c(F)c1 (racemic) [racemic 65],< 5
20,CC(C)CN(c1ccc(OC(C)C(=O)O)cc1NC(=O)Nc1ccc(C#N)cc1)C1CCCCC1 (racemic) [racemic 66],≥ 100
21,CCOC(=O)C(C)Oc1ccc(N(CC(C)C)C2CCCCC2)c(NC(=O)Nc2ccc(Cl)cc2F)c1 (racemic) [racemic 67],< 5
22,CC(C)CN(c1cc(F)c(OC(C)C(=O)O)cc1NC(=O)Nc1ccc(Cl)cc1F)C1CCCCC1 (racemic) [racemic 136],< 5
23,"CC(C)CN(c1ccc(OC(C)C(=O)O)cc1NC(=O)Nc1cncnc1)C1CCCCC1 (single isomer, unassigned) [Example 58-1, 2-(4-(cyclohexyl(isobutyl)amino)-3-(3-(pyrimidin-5-yl)ureido)phenoxy)propanoic acid]",≥ 100
24,"CC(C)CN(c1ccc(OC(C)C(=O)O)cc1NC(=O)Nc1cncnc1)C1CCCCC1 (single isomer, unassigned) [Example 58-2, 2-(4-(cyclohexyl(isobutyl)amino)-3-(3-(pyrimidin-5-yl)ureido)phenoxy)propanoic acid]",< 100
25,"CC(C)CN(c1ccc(OC(C)C(=O)O)cc1NC(=O)Nc1ccccc1F)C1CCCCC1 (single isomer, unassigned) [Example 59-1, 2-(4-(cyclohexyl(isobutyl)amino)-3-(3-(2-fluoro-phenyl)ureido)phenoxy)propanoic acid]",< 5

# Results, then the compound that gave them:
row,IC50 [nM],SMILES
1,< 5,"Cc1ccc(NC(=O)Nc2cc(OC(C)C(=O)O)ccc2N(CC(C)C)C2CCCCC2)cc1 (single isomer, unassigned) [Example 60-1, 2-(4-(cyclohexyl(isobutyl)amino)-3-(3-(p-tolyl)ureido)phenoxy)propanoic acid]"
2,< 5,"CC(C)CN(c1ccc(OC(C)C(=O)O)cc1NC(=O)Nc1ccc(Cl)cc1F)C1CCCCC1 (single isomer, unassigned) [Example 61-1, 2-(3-(3-(4-chloro-2-fluorophenyl)ureido)-4-(cyclo-hexyl(isobutyl)amino)phenoxy)propanoic acid]"
3,< 5,"CC(C)CN(c1ccc(OC(C)C(=O)O)cc1NC(=O)Nc1ccc(Cl)cc1F)C1CCCCC1 (single isomer, unassigned) [Example 61-2, 2-(3-(3-(4-chloro-2-fluorophenyl)ureido)-4-(cyclo-hexyl(isobutyl)amino)phenoxy)propanoic acid]"
4,< 100,"COc1ccc(NC(=O)Nc2cc(OC(C)C(=O)O)ccc2N(CC(C)C)C2CCCCC2)c(F)c1 (single isomer, unassigned) [Example 64-1, 2-(4-(cyclohexyl(isobutyl)amino)-3-(3-(2-fluoro-4-methoxyphenyl)ureido)phenoxy)propanoic acid]"
5,< 5,"COc1ccc(NC(=O)Nc2cc(OC(C)C(=O)O)ccc2N(CC(C)C)C2CCCCC2)c(F)c1 (single isomer, unassigned) [Example 64-2, 2-(4-(cyclohexyl(isobutyl)amino)-3-(3-(2-fluoro-4-methoxyphenyl)ureido)phenoxy)propanoic acid]"
6,< 100,"Cc1ccc(NC(=O)Nc2cc(OC(C)C(=O)O)ccc2N(CC(C)C)C2CCCCC2)c(F)c1 (single isomer, unassigned) [Example 65-1, 2-(4-(cyclohexyl(isobutyl)amino)-3-(3-(2-fluoro-4-methylphenyl)ureido)phenoxy)propanoic acid]"
7,< 5,"Cc1ccc(NC(=O)Nc2cc(OC(C)C(=O)O)ccc2N(CC(C)C)C2CCCCC2)c(F)c1 (single isomer, unassigned) [Example 65-2, 2-(4-(cyclohexyl(isobutyl)amino)-3-(3-(2-fluoro-4-methylphenyl)ureido)phenoxy)propanoic acid]"
8,< 100,"CC(C)CN(c1ccc(OC(C)C(=O)O)cc1NC(=O)Nc1ccc(C#N)cc1)C1CCCCC1 (single isomer, unassigned) [Example 66-1, 2-(3-(3-(4-cyanophenyl)ureido)-4-(cyclohexyl(isobutyl)amino)phenoxy)propanoic acid]"
9,< 5,"CC(C)CN(c1ccc(OC(C)C(=O)O)cc1NC(=O)Nc1ccc(C#N)cc1)C1CCCCC1 (single isomer, unassigned) [Example 66-2, 2-(3-(3-(4-cyanophenyl)ureido)-4-(cyclohexyl(isobutyl)amino)phenoxy)propanoic acid]"
